Counter-ions that a name gives are not always drawn. Where a SMILES comes first, the peptide text is derived from it. Bridges are numbered along the chain shown (N, C = ends). [ ]: non-standard residue; d: D form. The star is where a group is joined. ξ: configuration not given here. Thr(3ξ) = CC(O)[C@H](N)C(=O)O; Dab = NCC[C@H](N)C(=O)O; Aoc = NCCCCCCCC(=O)O; X2 = NC1CCCC1C(=O)*; Ava = NCCCCC(=O)O
What was measured:
Assay in all cases: MIC susceptibility testing, broth microdilution in CaMHB
[1] = test system: E. coli ATCC25922; format: cell-based, Escherichia coli
Procedure: (§1) To evaluate the potency and spectrum of the compounds, susceptibility testing was performed against four strains of each of the four Gram negative pathogens, Escherichia coli, Pseudomonas aeruginosa, Klebsiella pneumoniae and Acinetobacter baumannii.
(§2) The day before testing, 3 to 4 colonies were picked from fresh Mueller-Hinton Agar (MHA) plate and transferred into 10 mL of Cation adjusted MHB (CaMHB). Cultures were incubated at 37° C. 250 rpm for 18-20 hours before being diluted 100-fold in fresh CaMHB. The subcultures were grown further until the OD600 reached 0.2-0.3 corresponding to […]. The actively growing cultures were diluted 100-fold in fresh medium and used for the inoculum.
(§3) The assays were performed in duplicate.
(§4) Data was obtained under similar conditions to Table 4 except that different batches of cation-adjusted Muller-Hinton broth were used. The MIC values for these compounds are compared with those values obtained for Polymyxin B, Colistin Sulphate, CB-182,804 and NAB739 (as the TFA salt). CB-182,804 is a polymyxin decapeptide derivative with an aryl urea substituent at the N-terminus, which has been claimed to have lower toxicity than Polymyxin B (compound 5 in WO 2010/075416. See page 37). NAB739 has been described previously by Vaara et al.

[2] = test system: E. coli ATCC700928; format: cell-based, Escherichia coli
Procedure: as §1, §2, §3, §4

[3] = test system: E. coli NCTC12900; format: cell-based, Escherichia coli
Procedure: as §1, §2, §3, §4

[4] = test system: E. coli NCTC9001; format: cell-based, Escherichia coli
Procedure: as §1, §2, §3, §4

[5] = test system: P. aeruginosa ATCC 9721; format: cell-based, Pseudomonas aeruginosa
Procedure: as §1, §2, §3, §4

[6] = test system: P. aeruginosa ATCC10145; format: cell-based, Pseudomonas aeruginosa
Procedure: as §1, §2, §3, §4

[7] = test system: P. aeruginosa ATCC27853; format: cell-based, Pseudomonas aeruginosa
Procedure: as §1, §2, §3, §4

[8] = test system: P. aeruginosa ATCCCRM-9027; format: cell-based, Pseudomonas aeruginosa
Procedure: as §1, §2, §3, §4

[9] = test system: K. pneumoniae ATCC 4352; format: cell-based, Klebsiella pneumoniae
Procedure: as §1, §2, §3, §4

[10] = test system: K. pneumoniae ATCCBAA-1706; format: cell-based, Klebsiella pneumoniae
Procedure: as §1, §2, §3, §4

[11] = test system: K. pneumoniae NCTC7427; format: cell-based, Klebsiella pneumoniae
Procedure: as §1, §2, §3, §4

[12] = test system: K. pneumoniae NCTC8172; format: cell-based, Klebsiella pneumoniae
Procedure: as §1, §2, §3, §4

[13] = test system: A. baumannii ATCC19606; format: cell-based, Acinetobacter baumannii
Procedure: as §1, §2, §3, §4

[14] = test system: A. baumannii ATCCBAA-747; format: cell-based, Acinetobacter baumannii
Procedure: as §1, §2, §3, §4

[15] = test system: A. baumannii NCTC13423; format: cell-based, Acinetobacter baumannii
Procedure: as §1, §2, §3, §4

[16] = test system: A. baumannii NCTC7844; format: cell-based, Acinetobacter baumannii
Procedure: as §1, §2, §3, §4

[17] = P. aeruginosa ATCC 9721, Table 4
[18] = P. aeruginosa ATCCCRM-9027, Table 4
[19] = K. pneumoniae ATCC 4352, Table 4
[20] = Table 4A, different batches of cation-adjusted Muller-Hinton broth

`CC(C)C[C@@H]1NC(=O)[C@@H](Cc2ccccc2)NC(=O)[C@H](CCN)NC(=O)[C@@H](NC(=O)[C@H](CCN)NC(=O)[C@@H](NC(=O)CCCCCCCN)C(C)O)CCNC(=O)[C@H](C(C)O)NC(=O)[C@H](CCN)NC(=O)[C@H](CCN)NC1=O` (stereo partly drawn) [Example 9, 8-Aminooctanoyl Polymyxin B Nonapeptide, Sulphate Salt] (H-[Aoc][Thr(3ξ)][Dab][Dab][Dab][dF]L[Dab][Dab][Thr(3ξ)]; lactam 4-C) showed an MIC ([1]; Table 4) of 2 micrograms/mL, an MIC ([2]; Table 4) of 1 micrograms/mL and an MIC ([3]; Table 4) of 1 micrograms/mL. It also gave an MIC ([4]; Table 4) of 2 micrograms/mL, an MIC [5, 17] of 0.5 micrograms/mL and an MIC ([6]; Table 4) of 2 micrograms/mL. It also gave an MIC ([7]; Table 4) of 0.5 micrograms/mL, an MIC [8, 18] of 0.5 micrograms/mL and an MIC [9, 19] of 0.5 micrograms/mL. For the same compound, the MIC ([10]; Table 4) was 0.5 micrograms/mL, the MIC ([11]; Table 4) was 0.5 micrograms/mL and the MIC ([12]; Table 4) was greater than 32 micrograms/mL. For the same compound, the MIC ([13]; Table 4) was 16 micrograms/mL, the MIC ([14]; Table 4) was greater than 32 micrograms/mL and the MIC ([15]; Table 4) was greater than 32 micrograms/mL. It also gave an MIC ([16]; Table 4) greater than 32 micrograms/mL.

`CC(C)C[C@@H]1NC(=O)[C@@H](Cc2ccccc2)NC(=O)[C@H](CCN)NC(=O)[C@@H](NC(=O)[C@H](CCN)NC(=O)[C@@H](NC(=O)CCCCN)C(C)O)CCNC(=O)[C@H](C(C)O)NC(=O)[C@H](CCN)NC(=O)[C@H](CCN)NC1=O` (stereo partly drawn) [Example 15, 5-Aminopentanoyl polymyxin B nonapeptide] (H-[Ava][Thr(3ξ)][Dab][Dab][Dab][dF]L[Dab][Dab][Thr(3ξ)]; lactam 4-C) was tested, and the MIC [1, 20] was 2 micrograms/mL, the MIC [2, 20] was 1 micrograms/mL and the MIC [3, 20] was 2 micrograms/mL. The MIC [4, 20] was 2 micrograms/mL, the MIC ([5]; P. aeruginosa ATCC9721, Table 4A, different batches of cation-adjusted Muller-Hinton broth) was 0.125 micrograms/mL and the MIC [6, 20] was 1 micrograms/mL. It also gave an MIC [7, 20] of 0.25 micrograms/mL, an MIC ([8]; P. aeruginosa AATCCRM 9027, Table 4A, different batches of cation-adjusted Muller-Hinton broth) of 0.125 micrograms/mL and an MIC ([9]; K. pneumoniae ATCC4352, Table 4A, different batches of cation-adjusted Muller-Hinton broth) of 0.5 micrograms/mL. For the same compound, the MIC [10, 20] was 0.5 micrograms/mL, the MIC [11, 20] was 0.25 micrograms/mL and the MIC [12, 20] was 4 micrograms/mL. The MIC [13, 20] was 1 micrograms/mL, the MIC [14, 20] was 8 micrograms/mL and the MIC [15, 20] was 4 micrograms/mL. For the same compound, the MIC [16, 20] was 8 micrograms/mL.

For `CC(C)C[C@@H]1NC(=O)[C@@H](Cc2ccccc2)NC(=O)[C@H](CCN)NC(=O)[C@@H](NC(=O)[C@H](CCN)NC(=O)[C@@H](NC(=O)C2CCCC2N)C(C)O)CCNC(=O)[C@H](C(C)O)NC(=O)[C@H](CCN)NC(=O)[C@H](CCN)NC1=O` (stereo partly drawn) [Example 11, (1R,S/2R,S)-2-Aminocyclopentanecarbonyl Polymyxin B Nonapeptide, Sulphate Salt] (X2-[Thr(3ξ)][Dab][Dab][Dab][dF]L[Dab][Dab][Thr(3ξ)]; lactam 3-C), the MIC ([1]; Table 4) was 2 micrograms/mL, the MIC ([2]; Table 4) was 0.125 micrograms/mL and the MIC ([3]; Table 4) was 2 micrograms/mL. For the same compound, the MIC ([4]; Table 4) was 0.5 micrograms/mL, the MIC [5, 17] was 0.25 micrograms/mL and the MIC ([6]; Table 4) was 0.25 micrograms/mL. It also gave an MIC ([7]; Table 4) of 0.125 micrograms/mL, an MIC [8, 18] of 0.125 micrograms/mL and an MIC [9, 19] of 0.5 micrograms/mL. The MIC ([10]; Table 4) was 0.25 micrograms/mL, the MIC ([11]; Table 4) was 0.25 micrograms/mL and the MIC ([12]; Table 4) was 2 micrograms/mL. For the same compound, the MIC ([13]; Table 4) was 2 micrograms/mL, the MIC ([14]; Table 4) was 1 micrograms/mL and the MIC ([15]; Table 4) was 0.5 micrograms/mL. The MIC ([16]; Table 4) was 4 micrograms/mL.
